{"source": "patent US10377711B2", "about": "“Cannabinoid type 1 receptor modulators” (priority 2014, dated 2019)", "key": {"[1]": {"target": "T1, CB1 receptor (HEK293 CB1 β-arrestin cells) (Homo sapiens, UniProt P21554)", "T1 construct": "host or cells: HEK293 CB1 β-arrestin cells (PathHunter)", "T1 sequence (P21554 whole entry)": "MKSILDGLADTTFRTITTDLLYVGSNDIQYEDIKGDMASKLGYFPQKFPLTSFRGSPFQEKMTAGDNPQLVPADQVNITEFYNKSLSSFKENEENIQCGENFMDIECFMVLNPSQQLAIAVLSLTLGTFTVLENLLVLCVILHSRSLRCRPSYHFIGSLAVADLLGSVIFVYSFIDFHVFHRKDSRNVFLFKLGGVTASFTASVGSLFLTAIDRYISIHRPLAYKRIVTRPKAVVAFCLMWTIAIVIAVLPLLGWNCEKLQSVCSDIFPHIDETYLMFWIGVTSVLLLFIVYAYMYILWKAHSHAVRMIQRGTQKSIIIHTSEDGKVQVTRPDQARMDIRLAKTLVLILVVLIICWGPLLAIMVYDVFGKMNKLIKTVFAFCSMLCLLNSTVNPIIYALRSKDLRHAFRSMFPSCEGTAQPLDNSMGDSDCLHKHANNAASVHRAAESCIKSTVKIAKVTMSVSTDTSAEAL", "assay": "PathHunter β-Arrestin assay, enhancement of anandamide stimulation", "assay_type": "cell-based", "settings": "maximum % increase in stimulation caused by anandamide", "description": "PathHunter™ β-Arrestin Assays\nβ-Arrestins are multifunctional intracellular proteins that interact with a structurally diverse group of cell surface receptors including GPCRs, to regulate cellular functions (see, e.g., Violin and Lefkowitz, 2007).\nPathHunter™ enzyme fragment complementation is the most important method to measure β-arrestin recruitment. PathHunter™ β-Arrestin assays developed by DiscoveRX are revolutionary high-throughput screening assays for monitoring GPCR activation following ligand stimulation, without an imaging instrument, fluorescent protein tag, or radioactivity.\nInstead, the assays detect GPCR activation through binding of β-arrestin to the expressed GPCR of interest, and measure the interaction of the two proteins using enzyme fragment complementation (EFC). The EFC approach offers a range of benefits for screening; including signal amplification and robust performance.\nThe larger portion of β-gal, termed EA for enzyme acceptor, is fused to the C-terminus of β-arrestin. The smaller, complementing fragment of β-gal, the ProLink™ tag, is expressed as a fusion protein with the GPCR of interest at the C-terminus. Upon activation, the GPCR is bound by β-arrestin. The interaction of β-arrestin and the GPCR forces the interaction of ProLink and EA, thus allowing complementation of the two fragments of β-gal and the formation of a functional enzyme capable of hydrolyzing substrate and generating a […] signal.\nUsing the PathHunter™ CB1 kit from DiscoveRX, a cannabinoid CB1 receptor agonist is added and activates the receptor, EA, which is fused to the C-terminus of β-arrestin, and then interacts with the ProLink™ tag which is fused to the CB1 receptor. This will result in the […] signal that is recorded by a luminescence plate reader. The […] signal is directly related to the activation of the receptor, therefore a higher concentration of agonist will yield a larger […] signal. The cannabinoid agonist is added in increasing concentrations to obtain an agonist dose response curve. With pre-incubation of a potential allosteric modulator, either an enhancement of agonist signalling with an allosteric enhancer or a decrease in the maximal response of the agonist with an allosteric inhibitor is expected.\nAll raw data are obtained as luminescence (relative light units), and are normalised and presented as a percentage of the maximal response for the endogenous cannabinoid CB1 receptor agonist anandamide (N-arachidonoylethanolamine).\nThe PathHunter™ β-Arrestin assay (from DiscoveRX, Fremont, USA) was performed as follows. HEK293 CB1 β-arrestin cells were plated 48 hours before use and incubated at 37° C., 5% CO2 in a humidified incubator. Test compounds were dissolved in dimethylsulfoxide (DMSO) and diluted in optimized cell culture media (OCC, as supplied by DiscoveRX) media to the required concentrations. 5 μL of test compound or vehicle solution was added to each well and incubated for 60 minutes at 37° C., 5% CO2 in a humidified incubator. 5 μL of increasing concentrations of anandamide was added to each well followed by a 90 minute incubation at 37° C., 5% CO2 in a humidified incubator. 55 μL of detection reagent (as supplied by DiscoveRX) was then added, followed by a further 90 minute incubation at room temperature in the dark. Chemiluminescence, reported in relative light units (RLU—a dimensionless value, standardised as a % of maximum stimulation with anandamide), was measured on a standard luminescence plate reader.\nData were plotted as % of maximal stimulation (Emax) caused by agonist versus the logarithm of concentration of agonist, in the presence or absence of a fixed concentration of test compound (modulator) or vehicle. For example, stimulation in the presence of agonist alone will give a value for stimulation expressed in RLU, which can be expressed as a range from 0% (at lowest agonist concentration, e.g., 1 nM) to 100% (at the highest agonist concentration, e.g., 10 μM). […]"}, "[2]": {"assay": "in vitro", "settings": "both, microsomes, pH 7.4", "description": "Human and Rat Liver Microsomal Stability Assay\nThe metabolic stability of the compounds of the Formula (I) was measured by determination of the rate of compound disappearance when incubated in the presence of both human and rat liver microsomes. Liver microsomes are prepared from the endoplasmic reticulum of hepatocytes and are the primary source of the most important enzymes (cytochrome P450) involved in drug metabolism. Study of drug stability in the presence of liver microsomes is accepted as a valuable model permitting rapid prediction of in vivo drug stability.\nHuman and rat liver microsomes were obtained from a commercial source. Test compounds (3 μM) were incubated with pooled liver microsomes (male and female). Samples were incubated for a 45 minute period and removed at 5 time points and test compounds were analysed by LC-MS/MS.\nThe final incubation volume was 25 μL. A control incubation was included for each compound tested, where 0.1 M phosphate buffer pH 7.4 was added instead of NADPH. The control compounds testosterone and 7-hydroxycoumarin were included in each experiment and all incubations were performed singularly for each compound.\nEach compound was incubated for 0, 5, 15, 30, and 45 minutes. The control (minus NADPH) was incubated for 45 minutes only. The reactions were stopped by the addition of 50 μL methanol containing internal standard at the appropriate time points. The incubation plates were centrifuged at 2500 rpm for 20 minutes at 4° C. to precipitate the protein.\nFollowing protein precipitation, the sample supernatants were combined in cassettes of up to 4 compounds and analysed using standard LC-MS/MS conditions.\nFrom a plot of the natural logarithm of the peak area ratio (i.e., the ratio of compound peak area:internal standard peak area) against time, the gradient of the line was determined. Subsequently, half-life and intrinsic clearance were calculated using the equations below: Eliminated Rate Constant (k)=(−Gradient)."}, "[3]": {"test_system": "C57BL/6J mice; FAAH knockout mice", "settings": "cited from earlier work"}, "[4]": {"test_system": "CCI model", "settings": "antagonized by rimonabant; cited from earlier work"}}, "data": [{"smiles": "Cc1ccc2c(C(C[N+](=O)[O-])c3cccs3)c(-c3ccccc3)[nH]c2c1", "note": "(centres unmarked) [ZCZ011]", "values": [{"measurement": "Potency % Enhancement 100 nM", "setting": "[1]; 100 nM test compound", "result": 56.8, "unit": "%"}, {"measurement": "Potency % Enhancement 1000 nM", "setting": "[1]; 1000 nM test compound", "result": 126.0, "unit": "%"}, {"measurement": "half-life at 3 μM", "setting": "[2]; human", "result": 36.7, "unit": "min"}, {"measurement": "microsomal CLint at 3 μM", "setting": "[2]; human", "result": 37.8, "unit": "µL/min/mg"}, {"measurement": "half-life at 3 μM", "setting": "[2]; rat", "result": 8.1, "unit": "min"}, {"measurement": "microsomal CLint at 3 μM", "setting": "[2]; rat", "result": 127, "unit": "µL/min/mg"}, {"measurement": "enhancement of the pharmacological effects of CP55,940", "setting": "[3]; 40 mg/kg, C57BL/6J mice", "result": "significantly enhanced"}, {"measurement": "enhancement of the pharmacological effects of AEA", "setting": "[3]; 40 mg/kg, fatty acid amide hydrolase (FAAH) knockout mice", "result": "significantly enhanced"}, {"measurement": "potency of AEA in the drug discrimination assay", "setting": "[3]; 40 mg/kg", "result": "significantly increasing"}, {"measurement": "catalepsy, thermal antinociception, hypothermia or changes in locomotor activity", "setting": "[3]; given alone", "result": "did not produce"}, {"measurement": "allodynia induced by mechanical (von Frey filaments) or cold (acetone) stimulation", "setting": "[4]", "result": "significantly reversed"}]}]}
